Reference: article PMC11231114 (EJNMMI Research, 2024)
Where “and” joins values, the source holds several entries; their conditions need not be identical. Identical values can stand only once.

Assays:
[1] = Blood activity clearance and pharmacokinetic parameters of radiolabelled compounds; format: in vivo; settings: radiolabelled compound, rat
Method: Approximately 0.2 mL/31.1 MBq of compound was administered i.v. At established time points after injection (15 min, 30 min, 1 h, 2 h, 4 h and 6 h), the animals were euthanized by cervical dislocation and dissected. Selected organs and tissues were weighed, and their radioactivity was measured using a NaI(Tl) crystal gamma counter. The results were adjusted for the radioactive decay of ^18F. The physiological distribution was calculated and expressed in terms of the percentage of administrated dose found in each of the selected organs (%ID) or per gram of tissues/organ (%ID/g) with suitable standards of the injected dose.
For [^18F]SYN2 the initial fast decrease mainly represents the equilibrium between the intravascular and extravascular components, and the second slower phase represents the metabolism.

[2] = Dosimetry: human absorbed dose extrapolated from rat biodistribution (OLINDA/EXM); settings: human estimate extrapolated from rats
Text: The pharmacokinetics data from ex vivo biodistribution studies in rats were extrapolated to humans using the simplest allometric scaling model to estimate an effective dose in mSv/MBq. The dose calculation was done using computer software for internal dose assessment OLINDA/EXM® (Version 1.1, copyright Vanderbilt University, 2007).
This work estimated the human absorbed radiation dose based on a detailed description of activity organ distribution data for normal rats. […] Additionally, the obtained theoretical values for examined cardiotracers were compared with [^18F]flurpiridaz absorbed dose calculated in exercise stress subjects in humans (Table 6).

Structure (SMILES): CN(C)c1ccc2cc3ccc(N(C)C)cc3[n+](CC[18F])c2c1 [[^18F]SYN2]
- AUCt ([1]; i.v.): 421 ng·h/mL
- Cl ([1]; i.v.): 0.2 mL/min/kg
- Cmax ([1]; i.v.): 76.39 ng/mL
- Tmax ([1]; i.v.): 0 h
- Vz ([1]; i.v.): 1.43 L/kg
- T½ ([1]; calculated from Eq. (0.693 · VZ · AUC)/dose): 79.9 h
- Absorbed dose per administrated activity, Adrenals [2]: 8.06E-03 mSv/MBq
- Absorbed dose per administrated activity, Brain [2]: 2.84E-03 mSv/MBq
- Absorbed dose per administrated activity, Breasts [2]: 2.93E-03 mSv/MBq
- Absorbed dose per administrated activity, Gallbladder Wall [2]: 8.01E-03 mSv/MBq
- Absorbed dose per administrated activity, Heart Wall [2]: 0.0415 mSv/MBq and 0.042 mSv/MBq and 4.15E-02 mSv/MBq
- Absorbed dose per administrated activity, Kidneys [2]: 0.0704 mSv/MBq and 0.070 mSv/MBq and 7.04E-02 mSv/MBq
- Absorbed dose per administrated activity, Liver [2]: 1.17E-02 mSv/MBq
- Absorbed dose per administrated activity, Lower Large Intestine Wall [2]: 1.18E-02 mSv/MBq
- Absorbed dose per administrated activity, Lungs [2]: 2.16E-02 mSv/MBq
- Absorbed dose per administrated activity, Muscle [2]: 1.03E-02 mSv/MBq
- Absorbed dose per administrated activity, Osteogenic Cells [2]: 4.02E-03 mSv/MBq
- Absorbed dose per administrated activity, Ovaries [2]: 7.10E-03 mSv/MBq
- Absorbed dose per administrated activity, Pancreas [2]: 0.0285 mSv/MBq and 2.85E-02 mSv/MBq
- Absorbed dose per administrated activity, Red Marrow [2]: 4.77E-03 mSv/MBq
- Absorbed dose per administrated activity, Skin [2]: 2.65E-03 mSv/MBq
- Absorbed dose per administrated activity, Small Intestine [2]: 1.84E-02 mSv/MBq
- Absorbed dose per administrated activity, Spleen [2]: 2.13E-02 mSv/MBq
- Absorbed dose per administrated activity, Stomach Wall [2]: 1.19E-02 mSv/MBq
- Absorbed dose per administrated activity, Testes [2]: 4.97E-03 mSv/MBq
- Absorbed dose per administrated activity, Thymus [2]: 5.48E-03 mSv/MBq
- Absorbed dose per administrated activity, Thyroid [2]: 2.49E-02 mSv/MBq
- Absorbed dose per administrated activity, Total Body [2]: 7.67E-03 mSv/MBq
- Absorbed dose per administrated activity, Upper Large Intestine Wall [2]: 2.01E-02 mSv/MBq
- Absorbed dose per administrated activity, Urinary Bladder Wall [2]: 5.29E-03 mSv/MBq
- Absorbed dose per administrated activity, Uterus [2]: 6.27E-03 mSv/MBq
- Effective Dose Equivalent [2]: 1.71E-02 mSv/MBq
- Effective dose [2]: 0.0109 mSv/MBq and 1.09E-02 mSv/MBq
